According to ChEMBL document CHEMBL1811826, “Structure-activity relationship and docking studies of thiazolidinedione-type compounds with monoamine oxidase B” (Bioorg Med Chem Lett, 2011):
Activity calls are given as the source filed them. The rule behind the calls is not given here.

Legend:
[1] = target: T1, Amine oxidase [flavin-containing] A (Homo sapiens, UniProt P21397); experiment: Inhibition of human recombinant MAOA assessed as inhibition of kynuramine conversion to fluorescent metabolite 4-hydroxyquinoline by fluorimetry
T1 sequence (P21397 whole entry): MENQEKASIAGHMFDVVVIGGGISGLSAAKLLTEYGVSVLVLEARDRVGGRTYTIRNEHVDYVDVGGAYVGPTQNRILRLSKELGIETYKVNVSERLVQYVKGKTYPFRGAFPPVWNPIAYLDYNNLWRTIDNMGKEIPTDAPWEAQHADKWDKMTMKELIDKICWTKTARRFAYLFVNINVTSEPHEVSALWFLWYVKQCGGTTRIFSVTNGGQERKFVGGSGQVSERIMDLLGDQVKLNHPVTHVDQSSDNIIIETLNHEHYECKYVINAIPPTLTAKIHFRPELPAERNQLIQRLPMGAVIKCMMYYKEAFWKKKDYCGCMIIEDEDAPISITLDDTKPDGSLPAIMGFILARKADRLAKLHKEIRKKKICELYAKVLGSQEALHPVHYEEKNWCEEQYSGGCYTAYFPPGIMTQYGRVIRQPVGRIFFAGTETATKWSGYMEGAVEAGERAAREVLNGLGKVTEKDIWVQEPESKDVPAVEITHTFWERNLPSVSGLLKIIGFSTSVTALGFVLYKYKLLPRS

[2] = target: T2, Amine oxidase [flavin-containing] B (Homo sapiens, UniProt P27338); experiment: Inhibition of human recombinant MAOB by amplex red assay
T2 sequence (P27338 whole entry): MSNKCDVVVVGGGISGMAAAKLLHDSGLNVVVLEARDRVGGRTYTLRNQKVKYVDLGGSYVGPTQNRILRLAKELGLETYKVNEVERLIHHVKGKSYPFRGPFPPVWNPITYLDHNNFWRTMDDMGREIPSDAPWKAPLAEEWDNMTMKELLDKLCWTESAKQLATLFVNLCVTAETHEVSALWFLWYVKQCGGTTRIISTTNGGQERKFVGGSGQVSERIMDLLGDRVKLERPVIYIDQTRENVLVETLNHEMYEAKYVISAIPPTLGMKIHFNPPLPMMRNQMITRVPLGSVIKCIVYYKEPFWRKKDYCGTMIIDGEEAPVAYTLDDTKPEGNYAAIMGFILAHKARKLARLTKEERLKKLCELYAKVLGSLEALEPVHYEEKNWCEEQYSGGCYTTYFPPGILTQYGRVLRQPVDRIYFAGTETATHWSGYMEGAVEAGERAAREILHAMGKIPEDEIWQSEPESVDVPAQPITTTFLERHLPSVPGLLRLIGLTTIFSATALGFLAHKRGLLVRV

[3] = system: Mus musculus; experiment: Neuroprotective activity in MPTP-stimulated C57BL/6 mouse assessed as increase in striatal dopamine content at 10 mg/kg, sc administered 1 hr before MPTP challenge measured after 7 days by HPLC method; type: functional, organism-based; parameters: dose 10 mg/kg
[4] = system: Mus musculus; experiment: Toxicity in C57BL/6 mouse assessed as striatal dopamine level at 10 mg/kg, sc measured after 7 days by HPLC method; type: organism-based; parameters: dose 10 mg/kg, route subcutaneous; conditions: in vivo, 168 h

| Structure (SMILES) | IC50 [1] | IC50 [2] | Activity [3] | Activity [4] |
| --- | --- | --- | --- | --- |
| O=C1NC(=O)/C(=C/c2ccc3nccnc3c2)S1 | 166 µM | – | – | – |
| CC(C)(C)c1cc(CC2SC(=O)N=C2O)cc(C(C)(C)C)c1O (stereo unspecified) | – | 2.38 µM | Active | Non-toxic |
| COc1cc(/C=C2/SC(=S)NC2=O)c(OC)cc1O | 380 µM | 31.6 µM | – | – |
| O=C(O)CCN1C(=O)/C(=C\c2ccccc2)SC1=S | 70.5 µM | 604 µM | – | – |
| Cc1cc(C)cc(CC2SC(=O)NC2=O)c1 (stereo unspecified) | 50.5 µM | – | – | – |
| O=C1NC(=O)/C(=C\c2cccc(Br)c2)S1 | 67.3 µM | 6.07 µM | – | – |
| O=C1NC(=O)C(Cc2ccc(O)cc2)S1 (stereo unspecified) [GLITAZONE] | 194 µM | 225 µM | – | – |
| N=C1NC(=O)C(Cc2ccccc2)S1 (stereo unspecified) | – | 24.1 µM | – | – |
| CC(=O)c1ccc(CC2SC(=N)NC2=O)cc1 (stereo unspecified) | 252 µM | 309 µM | – | – |
| CN1C(=O)/C(=C\c2ccc(Cl)cc2)SC1=S | 399 µM | 36.5 µM | – | – |
| O=C(O)C(Cc1ccc(O)cc1)N1C(=O)CSC1=S (stereo unspecified) | – | 273 µM | – | – |

Continued by falling IC50 [1], values first:

| IC50 [1] | IC50 [2] | Structure (SMILES) | Activity [3] | Activity [4] |
| --- | --- | --- | --- | --- |
| 39.9 µM | 1.02 µM | O=C1NC(=O)/C(=C\c2cc(Br)c(O)c(Br)c2)S1 | – | – |
| 37.3 µM | 56 µM | O=C1NC(=O)/C(=N\c2ccc(C(=O)O)cc2)S1 | – | – |
| 35.3 µM | 11 µM | O=C(/C=C1/SC(=O)NC1=O)Nc1cccc(O)c1 | – | – |
| 35.3 µM | 22 µM | O=C(/C=C1/SC(=O)NC1=O)Nc1ccccc1 | – | – |
| 29.8 µM | – | COc1ccccc1/C=C1\SC(=O)N(CCN)C1=O | – | – |
| 28.6 µM | 2.49 µM | COc1cc(/C=C2\SC(=S)NC2=O)ccc1O | – | – |
| 26.2 µM | 16.1 µM | Cc1cc(CC2SC(=O)NC2=O)cc(C)c1O (stereo unspecified) | – | – |
| 21.8 µM | – | O=C1NC(=S)S/C1=C/c1ccncc1 | – | – |
| 13 µM | – | O=C1NC(=O)/C(=C\c2ccncc2)S1 | – | – |
| 10.6 µM | 0.8 µM | CCCN1C(=O)/C(=C\c2ccncc2)SC1=S | – | – |
| 6.88 µM | – | CN(C)c1ccc(/C=C2\SC(=O)N(CCN)C2=O)cc1 | – | – |
| 3.49 µM | – | N#CCCN1C(=O)S/C(=C\c2ccccc2)C1=O | – | – |
| 1.04 µM | – | CCOc1ccc(/C=C2\SC(=O)N(CCN)C2=O)cc1 | – | – |
| 0.52 µM | 10.5 µM | CN1C(=O)/C(=C\c2ccccc2)SC1=S | – | – |
